From ChEMBL document CHEMBL4373747 (ACS Med Chem Lett, 2020)

How the values were obtained:
Histone deacetylase 3 = Histone deacetylase 3 (Homo sapiens, UniProt O15379); assay: Inhibition of recombinant full length human HDAC3 expressed in baculovirus infected Sf9 cells using FAM-RHKK-Ac as substrate incubated for 3 hrs by electrophoretic mobility shift assay
MV4-11 = assay: Cytotoxicity against human MV4-11 cells assessed as reduction in cell viability incubated for 72 hrs by cell-titer blue assay; assay type: functional, cell-based; conditions: MV4-11, 72 h
MDA-MB-231 = assay: Cytotoxicity against human MDA-MB-231 cells assessed as reduction in cell viability incubated for 72 hrs by cell-titer blue assay; assay type: functional, cell-based; conditions: MDA-MB-231, 72 h
[1] = Cytotoxicity against human MRC9 cells assessed as reduction in cell viability incubated for 72 hrs by cell-titer blue assay; assay type: cell-based; conditions: MRC9, 72 h
MDA-MB-468 = assay: Cytotoxicity against human MDA-MB-468 cells assessed as reduction in cell viability incubated for 72 hrs by cell-titer blue assay; assay type: functional, cell-based; conditions: MDA-MB-468, 72 h
[2] = target: T1, Protein deacetylase HDAC6 (Homo sapiens, UniProt Q9UBN7); assay: Inhibition of recombinant full length human HDAC6 expressed in baculovirus infected Sf9 cells using FAM-RHKK-Ac as substrate incubated for 5 hrs by electrophoretic mobility shift assay
T1 sequence (Q9UBN7 whole entry): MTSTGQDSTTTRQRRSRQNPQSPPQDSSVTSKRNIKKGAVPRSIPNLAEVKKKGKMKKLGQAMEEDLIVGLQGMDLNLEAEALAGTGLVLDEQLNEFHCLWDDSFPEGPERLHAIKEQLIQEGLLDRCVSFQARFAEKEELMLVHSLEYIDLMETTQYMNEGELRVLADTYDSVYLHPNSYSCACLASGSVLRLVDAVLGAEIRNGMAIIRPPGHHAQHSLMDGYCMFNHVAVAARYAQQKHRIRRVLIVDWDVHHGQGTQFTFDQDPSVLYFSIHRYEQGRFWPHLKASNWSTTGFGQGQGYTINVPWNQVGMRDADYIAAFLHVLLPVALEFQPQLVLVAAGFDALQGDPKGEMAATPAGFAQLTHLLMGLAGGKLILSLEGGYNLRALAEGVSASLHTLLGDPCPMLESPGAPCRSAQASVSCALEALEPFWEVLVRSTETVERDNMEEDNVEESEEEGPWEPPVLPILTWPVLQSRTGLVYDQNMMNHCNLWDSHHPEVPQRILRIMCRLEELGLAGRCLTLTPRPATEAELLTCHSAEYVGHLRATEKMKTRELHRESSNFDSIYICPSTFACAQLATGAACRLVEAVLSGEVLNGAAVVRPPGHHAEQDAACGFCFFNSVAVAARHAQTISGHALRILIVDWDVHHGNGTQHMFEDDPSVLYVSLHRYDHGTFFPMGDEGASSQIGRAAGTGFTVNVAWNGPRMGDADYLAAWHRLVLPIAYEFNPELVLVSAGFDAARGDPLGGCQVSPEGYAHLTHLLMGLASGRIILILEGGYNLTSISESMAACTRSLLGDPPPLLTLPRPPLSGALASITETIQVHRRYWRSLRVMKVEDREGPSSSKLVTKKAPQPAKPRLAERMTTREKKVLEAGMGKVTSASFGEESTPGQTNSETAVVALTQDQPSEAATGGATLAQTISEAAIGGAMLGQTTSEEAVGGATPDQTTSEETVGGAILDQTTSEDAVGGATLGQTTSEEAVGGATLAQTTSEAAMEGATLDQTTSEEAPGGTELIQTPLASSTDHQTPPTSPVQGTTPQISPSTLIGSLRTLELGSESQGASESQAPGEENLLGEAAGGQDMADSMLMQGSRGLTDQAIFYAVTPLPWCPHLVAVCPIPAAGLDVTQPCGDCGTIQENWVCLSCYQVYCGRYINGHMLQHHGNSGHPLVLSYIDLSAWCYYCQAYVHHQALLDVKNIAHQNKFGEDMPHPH

Histone deacetylase 8 = target: T2, Histone deacetylase 8 (Homo sapiens, UniProt Q9BY41); assay: Inhibition of recombinant full length human HDAC8 expressed in baculovirus infected Sf9 cells using FAM-RHKK-TFAc as substrate incubated for 3 hrs by electrophoretic mobility shift assay
T2 sequence (Q9BY41 whole entry): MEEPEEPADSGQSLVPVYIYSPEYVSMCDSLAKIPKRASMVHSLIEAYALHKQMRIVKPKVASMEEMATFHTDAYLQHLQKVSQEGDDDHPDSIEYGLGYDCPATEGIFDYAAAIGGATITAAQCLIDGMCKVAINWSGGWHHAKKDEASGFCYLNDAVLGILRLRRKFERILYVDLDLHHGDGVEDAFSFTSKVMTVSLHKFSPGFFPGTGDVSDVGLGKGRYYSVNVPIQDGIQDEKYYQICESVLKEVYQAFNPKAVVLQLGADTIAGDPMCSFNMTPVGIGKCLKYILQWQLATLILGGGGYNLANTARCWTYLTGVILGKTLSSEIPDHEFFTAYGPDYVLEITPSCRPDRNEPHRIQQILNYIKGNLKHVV

MOLM-13 = assay: Cytotoxicity against human MOLM13 cells assessed as reduction in cell viability incubated for 72 hrs by cell-titer blue assay; assay type: functional, cell-based; conditions: MOLM-13, 72 h
[3] = target: T1, Protein deacetylase HDAC6; assay: Inhibition of recombinant full length human HDAC6 expressed in baculovirus infected Sf9 cells assessed as inhibitory constant using FAM-RHKK-Ac as substrate incubated for 5 hrs by electrophoretic mobility shift assay
Histone deacetylase 11 = target: T3, Histone deacetylase 11 (Homo sapiens, UniProt Q96DB2); assay: Inhibition of recombinant full length human HDAC11 expressed in baculovirus infected Sf9 cells using FAM-RHKK-TFAc as substrate incubated for 17 hrs by electrophoretic mobility shift assay
T3 sequence (Q96DB2 whole entry): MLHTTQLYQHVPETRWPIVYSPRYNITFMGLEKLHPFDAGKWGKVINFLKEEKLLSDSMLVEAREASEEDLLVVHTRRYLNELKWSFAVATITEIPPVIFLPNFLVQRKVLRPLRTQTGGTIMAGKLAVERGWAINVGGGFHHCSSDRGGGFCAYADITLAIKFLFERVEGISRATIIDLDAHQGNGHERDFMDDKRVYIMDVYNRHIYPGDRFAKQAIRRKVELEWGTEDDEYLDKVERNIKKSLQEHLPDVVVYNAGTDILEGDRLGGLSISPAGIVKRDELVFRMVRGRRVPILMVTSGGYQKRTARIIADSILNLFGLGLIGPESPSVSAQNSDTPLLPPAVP

[4] = Efflux ratio of apparent permeability in human Caco2 cells incubated for 2 hrs by LC/MS analysis; assay type: ADME, cell-based, Caco-2; conditions: for efflux ratio at 2 h: Caco-2
[5] = Apparent permeability from apical to basolateral side in human Caco2 cells incubated for 2 hrs by LC/MS analysis; assay type: ADME, cell-based, Caco-2; conditions: caco-2, 2 h
[6] = Protein binding in CD-1 mouse plasma at 1 uM incubated for 6 hrs by LCMS analysis; assay type: ADME, cell-free; conditions: mouse, 6 h, 1 µM
[7] = Intrinsic clearance in ICR/CD1 mouse hepatocytes at 1 uM measured upto 120 mins by LCMS analysis; assay type: ADME, cell-based, Hepatocyte; conditions: 2 h
[8] = Stability in CD-1 mouse hepatocytes assessed as compound remaining at 1 uM measured up to 6 hrs by LCMS analysis; assay type: ADME, cell-based, Hepatocyte; conditions: CD-1, mouse, read-out: Stability

Histone deacetylase 3, sequence (O15379 whole entry): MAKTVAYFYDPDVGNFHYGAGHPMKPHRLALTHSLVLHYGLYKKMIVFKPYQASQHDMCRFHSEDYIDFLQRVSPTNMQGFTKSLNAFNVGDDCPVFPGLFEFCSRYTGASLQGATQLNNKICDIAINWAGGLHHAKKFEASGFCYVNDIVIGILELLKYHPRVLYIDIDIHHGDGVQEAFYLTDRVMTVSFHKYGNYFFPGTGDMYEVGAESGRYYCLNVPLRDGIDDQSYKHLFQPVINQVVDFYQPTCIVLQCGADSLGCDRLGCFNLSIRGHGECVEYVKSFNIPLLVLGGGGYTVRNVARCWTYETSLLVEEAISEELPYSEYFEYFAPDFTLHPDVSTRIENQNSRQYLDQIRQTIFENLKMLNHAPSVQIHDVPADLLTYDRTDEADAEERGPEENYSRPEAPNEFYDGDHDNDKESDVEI

| SMILES | IC50 (Histone deacetylase 3) [nM] | IC50 (MV4-11) [nM] | IC50 (MDA-MB-231) [nM] | IC50 [1] [nM] | IC50 (MDA-MB-468) [nM] | IC50 [2] [nM] | IC50 (Histone deacetylase 8) [nM] | IC50 (MOLM-13) [nM] | Ki [3] [nM] | IC50 (Histone deacetylase 11) [nM] | efflux ratio at 2 h [4] | Ratio ([4]; caco-2, 2 h) | Papp [5] [×10⁻⁶ cm/s] | PPB [6] [%] | CLH [7] [µL/min] | remaining at 6 h, 1 µM [8] [%] |
| --- | --- | --- | --- | --- | --- | --- | --- | --- | --- | --- | --- | --- | --- | --- | --- | --- |
| CN(C(=O)CN(Cc1c(F)c(F)c(F)c(F)c1F)S(=O)(=O)c1ccc(F)cc1)c1ccc(C(=O)NO)cc1 | 213 | 3240 | > 25000 | > 25000 | > 25000 | 20.1 | 224 | 14100 | 573 | > 1000 | – | – | – | – | – | – |
| O=C(NO)c1ccc(N(Cc2ccccc2)C(=O)CN(Cc2c(F)c(F)c(F)c(F)c2F)S(=O)(=O)c2ccc(F)cc2)cc1 | 132 | 5800 | – | – | – | 1.49 | 90.6 | 8050 | 1860 | 51.9 | – | – | – | – | – | – |
| C[C@H]1O[C@@H](O[C@H]2[C@@H](O)C[C@H](O[C@H]3[C@@H](O)C[C@H](O[C@H]4CC[C@@]5(C)[C@H](CC[C@@H]6[C@@H]5C[C@@H](O)[C@]5(C)[C@@H](C7=CC(=O)OC7)CC[C@]65O)C4)O[C@@H]3C)O[C@@H]2C)C[C@H](O)[C@@H]1O [DIGOXIN] | – | – | – | – | – | – | – | – | – | – | 73 | – | – | – | – | – |
| COCCc1ccc(OCC(O)CNC(C)C)cc1 (stereo not given) [METOPROLOL] | – | – | – | – | – | – | – | – | – | – | 1 | – | – | – | – | – |
| CC(C)(C)c1ccc(CN(C(=O)CNS(=O)(=O)c2ccc(F)cc2)c2ccc(C(=O)NO)cc2)cc1 | 372 | 3330 | – | 10800 | > 12500 | 52.8 | 28 | 5110 | 293 | 665 | – | – | – | – | – | – |
| CC(C)(C)c1ccc(CNc2ccc(C(=O)NO)cc2)cc1 | 503 | 3490 | > 25000 | 16100 | > 25000 | 110 | > 1000 | 9470 | 451 | > 1000 | – | – | – | – | – | – |
| CC(C)(C)c1ccc(CN(C(=O)CN(Cc2c(F)c(F)c(F)c(F)c2F)S(=O)(=O)c2ccc(F)cc2)c2ccc(C(=O)NO)cc2)cc1 | – | 1880 | 2620 | 19200 | 4210 | – | > 1000 | 2100 | 3600 | – | – | 3.83 | 0.27 | 99.6 | 36 | 20 |
